Active and inactive are the calls of the source. No cut-off for these calls is given here.
Columns and labels:
[1] = molecular target: RAC-alpha serine/threonine-protein kinase (Homo sapiens) (UniProt P31749); experiment: Induction of Akt phosphorylation in H2O2-treated human SH-SY5Y cells at 0.1 uM by ELISA; type: cell-based
SH-SY5Y [2] = experiment: Cytotoxicity against human SH-SY5Y cells at 1 to 10 uM after 24 hrs by MTT assay; type: cell-based
SH-SY5Y [3] = experiment: Cytoprotective activity against H2O2-induced oxidative stress in human SH-SY5Y cells assessed as cell viability at 10 uM preincubated for 24 hrs followed by H2O2 addition and measured after 1 hr by MTT assay (reference value: 37.88 +/- 8.52%); type: functional; settings: read-out: Activity
SH-SY5Y [4] = experiment: Cytoprotective activity against H2O2-induced oxidative stress in human SH-SY5Y cells assessed as cell viability at 0.1 uM preincubated for 24 hrs followed by H2O2 addition and measured after 1 hr by MTT assay (reference value: 37.88 +/- 8.52%); type: functional; settings: read-out: Activity
[5] = molecular target: RAC-alpha serine/threonine-protein kinase (Homo sapiens) (UniProt P31749); experiment: Induction of Akt phosphorylation in H2O2-treated human SH-SY5Y cells assessed as increase in pBad levels at 0.1 uM by ELISA; type: cell-based
SH-SY5Y [6] = experiment: Cytoprotective activity against H2O2-induced oxidative stress in human SH-SY5Y cells assessed as cell viability at 1 uM preincubated for 24 hrs followed by H2O2 addition and measured after 1 hr by MTT assay (reference value: 37.88 +/- 8.52%); type: functional; settings: read-out: Activity
SH-SY5Y [7] = experiment: Cytoprotective activity against H2O2-induced oxidative stress in human SH-SY5Y cells assessed as increase in cell viability preincubated for 24 hrs followed by H2O2 addition and measured after 1 hr by MTT assay; type: functional, cell-based
SH-SY5Y [8] = experiment: Cytoprotective activity against H2O2-induced apoptosis in human SH-SY5Y cells assessed as decrease in Bax levels at 0.1 uM preincubated for 24 hrs followed by H2O2 addition measured after 1 hr by Western blot analysis; type: functional, cell-based
[9] = molecular target: Eukaryotic translation initiation factor 2 subunit 1 (Homo sapiens) (UniProt P05198); experiment: Inhibition of H2O2-induced eIF2alpha phosphorylation in human SH-SY5Y cells at 0.1 uM; type: cell-based
Eukaryotic translation initiation factor 2 subunit 1 (Homo sapiens), sequence (P05198 whole entry): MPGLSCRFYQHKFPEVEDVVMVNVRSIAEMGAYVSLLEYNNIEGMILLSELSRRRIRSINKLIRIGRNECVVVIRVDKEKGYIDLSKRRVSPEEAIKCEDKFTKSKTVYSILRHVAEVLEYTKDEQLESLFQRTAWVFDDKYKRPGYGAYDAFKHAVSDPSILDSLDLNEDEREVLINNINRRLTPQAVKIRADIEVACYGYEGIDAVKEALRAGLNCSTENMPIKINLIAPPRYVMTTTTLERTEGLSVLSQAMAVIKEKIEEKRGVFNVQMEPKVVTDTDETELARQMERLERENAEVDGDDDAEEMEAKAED

SH-SY5Y [10] = experiment: Cytoprotective activity against H2O2-induced apoptosis in human SH-SY5Y cells assessed as relative cleaved PARP levels at 1 uM (reference value: 0.725 +/- 0.06); type: functional
[11] = molecular target: RAC-alpha serine/threonine-protein kinase (Homo sapiens) (UniProt P31749); experiment: Induction of Akt phosphorylation in H2O2-treated human SH-SY5Y cells assessed as increase in pBad levels at 1 uM by ELISA; type: cell-based
[12] = Cytoprotective activity against H2O2-induced apoptosis in human SH-SY5Y cells assessed as relative cleaved caspase-7 levels at 1 uM (reference value: 1.025 +/- 0.120)
[13] = molecular target: Eukaryotic translation initiation factor 2 subunit 1 (Homo sapiens) (UniProt P05198); experiment: Inhibition of H2O2-induced eIF2alpha phosphorylation in human SH-SY5Y cells at 1 uM; type: cell-based
[14] = molecular target: T1, Mitogen-activated protein kinase; ERK1/ERK2 (Homo sapiens) (UniProt P27361+P28482); experiment: Inhibition of H2O2-induced p44/42 MAPK phosphorylation in human SH-SY5Y cells at 1 uM; type: cell-based
T1 sequence (P27361 whole entry, looked up): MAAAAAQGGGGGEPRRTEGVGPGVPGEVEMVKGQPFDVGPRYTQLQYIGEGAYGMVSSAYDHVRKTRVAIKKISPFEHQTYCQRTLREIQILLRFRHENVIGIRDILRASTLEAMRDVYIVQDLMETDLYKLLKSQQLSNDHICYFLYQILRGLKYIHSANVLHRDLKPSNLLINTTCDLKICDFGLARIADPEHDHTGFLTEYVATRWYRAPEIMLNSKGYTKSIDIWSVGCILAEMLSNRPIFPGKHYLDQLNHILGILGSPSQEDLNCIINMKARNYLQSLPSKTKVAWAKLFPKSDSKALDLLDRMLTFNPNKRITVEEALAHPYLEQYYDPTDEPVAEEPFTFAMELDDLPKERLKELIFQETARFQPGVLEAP
T1 sequence (P28482 whole entry, looked up): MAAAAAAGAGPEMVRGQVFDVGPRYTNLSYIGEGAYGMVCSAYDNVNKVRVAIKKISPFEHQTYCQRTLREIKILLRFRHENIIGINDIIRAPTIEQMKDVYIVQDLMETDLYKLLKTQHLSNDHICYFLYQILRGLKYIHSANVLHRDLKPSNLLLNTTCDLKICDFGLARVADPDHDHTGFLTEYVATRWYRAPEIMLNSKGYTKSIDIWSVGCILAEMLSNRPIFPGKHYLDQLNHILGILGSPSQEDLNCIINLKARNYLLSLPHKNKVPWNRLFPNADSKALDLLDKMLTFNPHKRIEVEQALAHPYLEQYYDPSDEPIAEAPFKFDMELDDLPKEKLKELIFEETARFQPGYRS

[15] = molecular target: RAC-alpha serine/threonine-protein kinase (Homo sapiens) (UniProt P31749); experiment: Induction of Akt phosphorylation in H2O2-treated human SH-SY5Y cells at 1 uM by ELISA; type: cell-based
[16] = molecular target: T2, MAP kinase p38 (Homo sapiens) (UniProt O15264+Q15759+Q16539+P53778); experiment: Inhibition of H2O2-induced p38 MAPK phosphorylation in human SH-SY5Y cells at 1 uM; type: cell-based
SH-SY5Y [17] = experiment: Cytoprotective activity against H2O2-induced apoptosis in human SH-SY5Y cells assessed as relative cleaved caspase-3 levels at 1 uM (reference value: 0.875 +/- 0.035); type: functional
SH-SY5Y [18] = experiment: Cytoprotective activity against H2O2-induced apoptosis in human SH-SY5Y cells assessed as increase in Bcl-2 levels at 0.1 uM preincubated for 24 hrs followed by H2O2 addition measured after 1 hr by Western blot analysis; type: functional, cell-based
SH-SY5Y [19] = experiment: Cytoprotective activity against H2O2-induced apoptosis in human SH-SY5Y cells assessed as relative Bcl-2 levels at 0.1 uM preincubated for 24 hrs followed by H2O2 addition measured after 1 hr by Western blot analysis (reference value: 2.084 +/- 0.078); type: functional
SH-SY5Y [20] = experiment: Cytoprotective activity against H2O2-induced apoptosis in human SH-SY5Y cells assessed as increase in Bcl-2/Bax ratio at 0.1 uM preincubated for 24 hrs followed by H2O2 addition measured after 1 hr by Western blot analysis; type: functional, cell-based
[21] = molecular target: T2, MAP kinase p38 (Homo sapiens); experiment: Inhibition of H2O2-induced p38 MAPK phosphorylation in human SH-SY5Y cells at 0.1 uM; type: cell-based
[22] = molecular target: T1, Mitogen-activated protein kinase; ERK1/ERK2 (Homo sapiens); experiment: Inhibition of H2O2-induced p44/42 MAPK phosphorylation in human SH-SY5Y cells at 0.1 uM; type: cell-based
SH-SY5Y [23] = experiment: Cytoprotective activity against H2O2-induced apoptosis in human SH-SY5Y cells assessed as relative cleaved PARP levels at 0.1 uM (reference value: 0.725 +/- 0.06); type: functional
SH-SY5Y [24] = experiment: Cytoprotective activity against H2O2-induced apoptosis in human SH-SY5Y cells assessed as relative cleaved caspase-3 levels at 0.1 uM (reference value: 0.875 +/- 0.035); type: functional
SH-SY5Y [25] = experiment: Cytoprotective activity against H2O2-induced apoptosis in human SH-SY5Y cells assessed as decrease in Bax levels at 1 uM preincubated for 24 hrs followed by H2O2 addition measured after 1 hr by Western blot analysis; type: functional, cell-based
SH-SY5Y [26] = experiment: Cytoprotective activity against H2O2-induced apoptosis in human SH-SY5Y cells assessed as increase in Bcl-2/Bax ratio at 1 uM preincubated for 24 hrs followed by H2O2 addition measured after 1 hr by Western blot analysis; type: functional, cell-based
SH-SY5Y [27] = experiment: Cytoprotective activity against H2O2-induced apoptosis in human SH-SY5Y cells assessed as relative Bcl-2 levels at 1 uM preincubated for 24 hrs followed by H2O2 addition measured after 1 hr by Western blot analysis (reference value: 2.084 +/- 0.078); type: functional
[28] = molecular target: T1, Mitogen-activated protein kinase; ERK1/ERK2 (Homo sapiens); experiment: Inhibition of H2O2-induced p44/42 MAPK phosphorylation in human SH-SY5Y cells at 10 uM; type: cell-based
SH-SY5Y [29] = experiment: Cytoprotective activity against H2O2-induced apoptosis in human SH-SY5Y cells assessed as relative Bcl-2 levels at 10 uM preincubated for 24 hrs followed by H2O2 addition measured after 1 hr by Western blot analysis (reference value: 2.084 +/- 0.078); type: functional
SH-SY5Y [30] = experiment: Cytoprotective activity against H2O2-induced apoptosis in human SH-SY5Y cells assessed as increase in Bcl-2/Bax ratio at 10 uM preincubated for 24 hrs followed by H2O2 addition measured after 1 hr by Western blot analysis; type: functional, cell-based
SH-SY5Y [31] = experiment: Cytoprotective activity against H2O2-induced apoptosis in human SH-SY5Y cells assessed as relative cleaved caspase-7 levels at 0.1 uM (reference value: 1.025 +/- 0.120); type: functional

RAC-alpha serine/threonine-protein kinase (Homo sapiens), sequence (P31749 whole entry): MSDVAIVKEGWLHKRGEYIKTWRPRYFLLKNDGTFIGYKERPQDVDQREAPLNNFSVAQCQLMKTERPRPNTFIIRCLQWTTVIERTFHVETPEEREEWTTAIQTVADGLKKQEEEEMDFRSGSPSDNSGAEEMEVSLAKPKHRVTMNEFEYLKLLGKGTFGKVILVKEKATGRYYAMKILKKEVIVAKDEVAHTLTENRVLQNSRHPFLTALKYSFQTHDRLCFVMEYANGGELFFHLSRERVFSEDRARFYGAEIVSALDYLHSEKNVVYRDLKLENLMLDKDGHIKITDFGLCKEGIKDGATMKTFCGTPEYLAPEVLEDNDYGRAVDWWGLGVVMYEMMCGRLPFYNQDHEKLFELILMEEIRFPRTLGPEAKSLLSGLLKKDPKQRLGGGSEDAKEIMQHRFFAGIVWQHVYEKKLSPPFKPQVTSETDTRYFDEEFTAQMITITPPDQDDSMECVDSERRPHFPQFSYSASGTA

Compound | Activity [1] | Activity (SH-SY5Y [2]) | viability at 10 µM (SH-SY5Y [3]) | viability at 0.1 µM (SH-SY5Y [4]) | Activity [5] | viability at 1 µM (SH-SY5Y [6]) | Activity (SH-SY5Y [7]) | Activity (SH-SY5Y [8]) | inhibition [9] | further results
COc1ccc(-c2nc3nnccn3c2-c2ccc([N+](=O)[O-])cc2)cc1 | inactive | Non-Toxic | 74.9% | 81.2% | inactive | 56% | Dose-dependent effect | Active | inactive | –
O=[N+]([O-])c1cccc(-c2cn3ccnnc3n2)c1 | – | Non-Toxic | 65.7% | 61.5% | – | 58.9% | Dose-dependent effect | – | – | –
COc1ccc(-c2nc3nnccn3c2-c2cccc(F)c2)cc1 | – | Non-Toxic | 66.4% | 54.6% | – | 51.3% | Dose-dependent effect | – | – | –
COc1ccc(-c2nc3nnccn3c2-c2ccc(C)cc2)cc1 | – | Non-Toxic | 63.3% | 55.3% | – | 67.4% | Dose-dependent effect | – | – | fold change (FC) (SH-SY5Y [10]): 0.581; Activity [11]: Active; fold change (FC) [12]: 0.856; inhibition [13]: inactive; inhibition [14]: Active; Activity [15]: Active; inhibition [16]: Active; fold change (FC) (SH-SY5Y [17]): 0.628
c1ccc(-c2cn3ccnnc3n2)cc1 | Active | Non-Toxic | 62.6% | 77.3% | Active | 72.8% | Dose-dependent effect | inactive | inactive | –
COc1ccccc1-c1cn2ccnnc2n1 | Active | Non-Toxic | 51.1% | 62.7% | Active | 60.5% | Dose-dependent effect | Active | inactive | Activity (SH-SY5Y [18]): Active
FC(F)(F)c1ccc(-c2cn3ccnnc3n2)cc1 | – | Non-Toxic | 60.8% | 85.1% | – | 59.1% | Dose-dependent effect | Active | inactive | fold change (FC) (SH-SY5Y [19]): 2.923; Activity (SH-SY5Y [20]): Active; inhibition [21]: Active
COc1ccc(-c2nc3nnccn3c2-c2ccccc2)cc1 | Active | Non-Toxic | 79.7% | 72.9% | Active | 50.6% | Dose-dependent effect | Active | inactive | Activity (SH-SY5Y [20]): Active; Activity (SH-SY5Y [18]): Active
COc1ccc(-c2cn3ccnnc3n2)cc1 | – | Non-Toxic | 60.9% | 73.9% | – | 71.3% | Dose-dependent effect | Active | inactive | inhibition [22]: Active; fold change (FC) (SH-SY5Y [23]): 0.62; fold change (FC) (SH-SY5Y [24]): 0.705
N#Cc1ccc(-c2cn3ccnnc3n2)cc1 | – | Non-Toxic | 54.2% | 67.1% | – | 65.4% | Dose-dependent effect | – | – | –
COc1ccc(-c2nc3nnccn3c2-c2ccccc2C)cc1 | – | Non-Toxic | 72.4% | 60.7% | – | 73.8% | Dose-dependent effect | – | – | Activity (SH-SY5Y [25]): Active; inhibition [13]: inactive; inhibition [14]: Active
COc1ccc(-c2nc3nnccn3c2-c2cccc(C#N)c2)cc1 | – | Non-Toxic | 54.3% | 66.6% | – | 55.5% | Dose-dependent effect | – | inactive | –
COc1ccc(-c2nc3nnccn3c2-c2ccc(OC(F)(F)F)cc2)cc1 | Active | Non-Toxic | 66.8% | 78.6% | Active | 54.8% | Dose-dependent effect | Active | inactive | Activity (SH-SY5Y [20]): Active; Activity (SH-SY5Y [18]): Active
COc1ccc(-c2nc3nnccn3c2-c2ccncc2)cc1 | – | Non-Toxic | 61.5% | 64.1% | – | 55.7% | Dose-dependent effect | – | – | –
COc1ccc(-c2nc3nnccn3c2-c2cccs2)cc1 | Active | Non-Toxic | 68.4% | 44.6% | inactive | 70.7% | Dose-dependent effect | – | – | Activity (SH-SY5Y [25]): inactive; inhibition [13]: inactive; Activity (SH-SY5Y [26]): Active; fold change (FC) (SH-SY5Y [27]): 2.955
COc1ccc(-c2nc3nnccn3c2-c2ccc(OC)cc2)cc1 | – | Non-Toxic | 75.2% | 49.6% | – | 65.5% | Dose-dependent effect | – | – | inhibition [28]: Active; fold change (FC) (SH-SY5Y [29]): 3.015; Activity (SH-SY5Y [30]): Active; inhibition [13]: inactive
COc1ccc(-c2nc3nnccn3c2-c2ccc(C)c([N+](=O)[O-])c2)cc1 | Active | Non-Toxic | 83.3% | 49.5% | Active | 79.6% | Dose-dependent effect | – | – | Activity (SH-SY5Y [25]): Active; fold change (FC) [12]: 0.834; inhibition [13]: inactive; inhibition [14]: Active; Activity (SH-SY5Y [26]): Active; fold change (FC) (SH-SY5Y [27]): 2.398
COc1cccc(-c2cn3ccnnc3n2)c1 | – | Non-Toxic | 65% | 73.8% | – | 62.8% | Dose-dependent effect | Active | inactive | inhibition [22]: Active; fold change (FC) (SH-SY5Y [23]): 0.48; inhibition [21]: Active; fold change (FC) (SH-SY5Y [24]): 0.595; fold change (FC) (SH-SY5Y [31]): 0.815

— ChEMBL document CHEMBL4145470, “Efficient synthesis and first regioselective C-6 direct arylation of imidazo[2,1-c][1,2,4]triazine scaffold and their evaluation in H2O2-induced oxidative stress” (Eur J Med Chem, 2018)
